In the supplement of paper PMC11208160:

experiment: recombinant UMI read abundance after kanamycin selection (control-corrected) (log10(CPM+1)); higher = more efficient recombination; extreme values may be limits of the assay; sequences stand for … in AGTGCAGAGAAAATCGGCCAGTTTTCTCTGCCTGCAGTCCGCATGCCGTGGGACCCCTTGGGTTCTAACCTGTTGCCTAGATTTATGCAGCGGACTGCCTTTCTCCCAAAGTGATAAACCGG…AGGTTGGTTTCACT; site = the 11-nt donor
Procedure, shortened: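 Under IPTG (0.07 mM) plus kanamycin, or without selection, Escherichia coli carrying a UMI-tagged donor and donor-binding-loop pair library and a target plasmid for the IS621 bridge recombinase were plated in two replicates. Recombinant UMIs were PCR-amplified across the donor–target junction and sequenced. Counts were converted to CPM, averaged over replicates, scaled by control-derived factors and reported as log10(CPM+1).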
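Also: IS621 bridge recombinase in Escherichia coli cells against a fixed T5 target plasmid.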

Sequence	recombinant UMI read abundance (log10)
CTAGTAGCATGGACCGGTTTTCCCGGTAATCCGTATTTGAC (site CTAGTAGCTGT)	2.87
CTAGTAGCATGGACCGGTTTTCCCGGTAATCCGTATTTGAC (site CTAGTATCTGT)	2.74
CTAGTATCATGGACCGGTTTTCCCGGTAATCCGTATTTGGC (site CTAGTATCTGA)	2.25
CTAGTATCATGGACCGGTTTTCCCGGTAATCCGTATTTGGC (site CTAGTATCTGC)	3.32
CTAGTATCATGGACCGGTTTTCCCGGTAATCCGTATTTGGC (site CTAGTATCTGG)	2.2
CTAGTATCATGGACCGGTTTTCCCGGTAATCCGTATTTGGC (site CTAGTATCTGT)	2.76
CTAGTATCATGGACCGGTTTTCCCGGTAATCCGTATTTGGT (site CTAGTATCTAC)	1.85
CTAGTATCATGGACCGGTTTTCCCGGTAATCCGTATTTGGT (site CTAGTATCTGT)	2.06
CTAGTATCATGGACCGGTTTTCCCGGTAATCCGTATTTGTC (site CTAGTATCTGA)	3.35
CTAGTATCATGGACCGGTTTTCCCGGTAATCCGTATTTGTC (site CTAGTATCTGC)	3.17
CTAGTATCATGGACCGGTTTTCCCGGTAATCCGTATTTGTC (site CTAGTATCTGG)	3.08
CTAGTATCATGGACCGGTTTTCCCGGTAATCCGTATTTGTC (site CTAGTATCTGT)	2.65
CTAGTCTCATGGACCGGTTTTCCCGGTAATCCGTATTTGAG (site CTAGTATCTGT)	0
CTAGTCTCATGGACCGGTTTTCCCGGTAATCCGTATTTGAG (site CTAGTCTCTCT)	0.61
CTAGTCTCATGGACCGGTTTTCCCGGTAATCCGTATTTGTC (site CTAGTATCTGT)	0.445
CTAGTCTCATGGACCGGTTTTCCCGGTAATCCGTATTTGTC (site CTAGTCTCTGA)	3.48
CTAGTTGCATGGACCGGTTTTCCCGGTAATCCGTATTTGAC (site CTAGTATCTGT)	0.412
CTAGTTGCATGGACCGGTTTTCCCGGTAATCCGTATTTGAC (site CTAGTTGCTGT)	2.24
CTATAGCCATGGACCGGTTTTCCCGGTAATCCGTATTTGCG (site CTATAGCCTCG)	1.01
CTATATCCATGGACCGGTTTTCCCGGTAATCCGTATTTGTA (site CTATATCCTTA)	1.51
CTATCATCATGGACCGGTTTTCCCGGTAATCCGTATTTGAT (site CTATCATCTAT)	0.00941
CTATGATCATGGACCGGTTTTCCCGGTAATCCGTATTTGCA (site CTATGATCTTG)	2.62
CTATGCTCATGGACCGGTTTTCCCGGTAATCCGTATTTGAA (site CAATGCTCTTT)	0.941
CTATGCTCATGGACCGGTTTTCCCGGTAATCCGTATTTGAA (site CCATGCTCTTT)	0.497
CTATGCTCATGGACCGGTTTTCCCGGTAATCCGTATTTGAA (site CGATGCTCTTT)	0.383

Sequence	recombinant UMI read abundance (log10)
CTATGCTCATGGACCGGTTTTCCCGGTAATCCGTATTTGAA (site CTATGCTCTTT)	2.25
CTATTACCATGGACCGGTTTTCCCGGTAATCCGTATTTGAG (site CTATTACCTCT)	0.00551
CTATTATCATGGACCGGTTTTCCCGGTAATCCGTATTTGAC (site CTAATATCTGT)	0
CTATTATCATGGACCGGTTTTCCCGGTAATCCGTATTTGAC (site CTACTATCTGT)	1.96
CTATTATCATGGACCGGTTTTCCCGGTAATCCGTATTTGAC (site CTAGTATCTGT)	1.61
CTATTATCATGGACCGGTTTTCCCGGTAATCCGTATTTGAC (site CTATTATCTGT)	2.82
CTATTATCATGGACCGGTTTTCCCGGTAATCCGTATTTGAT (site CTAGTATCTGT)	0
CTATTATCATGGACCGGTTTTCCCGGTAATCCGTATTTGAT (site CTATTATCTAT)	1.18
CTATTTCCATGGACCGGTTTTCCCGGTAATCCGTATTTGGA (site CTATTTCCTTC)	0
CTCAATTCATGGACCGGTTTTCCCGGTAATCCGTATTTGCT (site CTCAATTCTAG)	1.7
CTCACAACATGGACCGGTTTTCCCGGTAATCCGTATTTGTG (site CTCACAACTCA)	0
CTCACACCATGGACCGGTTTTCCCGGTAATCCGTATTTGTC (site CTCACACCTGA)	0
CTCACGCCATGGACCGGTTTTCCCGGTAATCCGTATTTGTG (site CTCACGCCTCA)	0
CTCACTACATGGACCGGTTTTCCCGGTAATCCGTATTTGAG (site CTCACTACTCT)	0.232
CTCACTACATGGACCGGTTTTCCCGGTAATCCGTATTTGAG (site CTCCCTACTCT)	0
CTCACTACATGGACCGGTTTTCCCGGTAATCCGTATTTGAG (site CTCGCTACTCT)	0
CTCACTACATGGACCGGTTTTCCCGGTAATCCGTATTTGAG (site CTCTCTACTCT)	0
CTCACTCCATGGACCGGTTTTCCCGGTAATCCGTATTTGTA (site CTCACTCCTTA)	0.981
CTCATACCATGGACCGGTTTTCCCGGTAATCCGTATTTGGT (site CTCATACCTAC)	0
CTCATATCATGGACCGGTTTTCCCGGTAATCCGTATTTGAC (site CTAGTATCTGT)	0
CTCATATCATGGACCGGTTTTCCCGGTAATCCGTATTTGAC (site CTCATATCTGT)	1.29
CTCATTTCATGGACCGGTTTTCCCGGTAATCCGTATTTGTG (site CTCATTTCTCA)	0
CTCCAAGCATGGACCGGTTTTCCCGGTAATCCGTATTTGAG (site ATCCAAGCTCT)	0.0148
CTCCAAGCATGGACCGGTTTTCCCGGTAATCCGTATTTGAG (site CTCCAAGCTCT)	0.456
CTCCAAGCATGGACCGGTTTTCCCGGTAATCCGTATTTGAG (site GTCCAAGCTCT)	0.0157

Sequence	recombinant UMI read abundance (log10)
CTCCAAGCATGGACCGGTTTTCCCGGTAATCCGTATTTGAG (site TTCCAAGCTCT)	0.018
CTCCACACATGGACCGGTTTTCCCGGTAATCCGTATTTGAC (site CTCCACACTGT)	2.47
CTCCACACATGGACCGGTTTTCCCGGTAATCCGTATTTGTA (site CACCACACTTA)	1.47
CTCCACACATGGACCGGTTTTCCCGGTAATCCGTATTTGTA (site CCCCACACTTA)	0.728
CTCCACACATGGACCGGTTTTCCCGGTAATCCGTATTTGTA (site CGCCACACTTA)	0.289
CTCCACACATGGACCGGTTTTCCCGGTAATCCGTATTTGTA (site CTCCACACTTA)	1.33
CTCCATACATGGACCGGTTTTCCCGGTAATCCGTATTTGAG (site CTCCATACTCT)	1.27
CTCCATACATGGACCGGTTTTCCCGGTAATCCGTATTTGAG (site CTCCCTACTCT)	0.0258
CTCCATACATGGACCGGTTTTCCCGGTAATCCGTATTTGAG (site CTCCGTACTCT)	0.0224
CTCCATACATGGACCGGTTTTCCCGGTAATCCGTATTTGAG (site CTCCTTACTCT)	0.0162
CTCCCTACATGGACCGGTTTTCCCGGTAATCCGTATTTGAA (site CTCCCTACTAT)	0.112
CTCCCTACATGGACCGGTTTTCCCGGTAATCCGTATTTGAA (site CTCCCTACTCT)	0.0285
CTCCCTACATGGACCGGTTTTCCCGGTAATCCGTATTTGAA (site CTCCCTACTGT)	0
CTCCCTACATGGACCGGTTTTCCCGGTAATCCGTATTTGAA (site CTCCCTACTTT)	0.46
CTCCCTACATGGACCGGTTTTCCCGGTAATCCGTATTTGAC (site CTCCCTACTAT)	0.576
CTCCCTACATGGACCGGTTTTCCCGGTAATCCGTATTTGAC (site CTCCCTACTCT)	0.293
CTCCCTACATGGACCGGTTTTCCCGGTAATCCGTATTTGAC (site CTCCCTACTGT)	1.88
CTCCCTACATGGACCGGTTTTCCCGGTAATCCGTATTTGAC (site CTCCCTACTTT)	0.415
CTCCCTACATGGACCGGTTTTCCCGGTAATCCGTATTTGAG (site ATCCCTACTCT)	0.0141
CTCCCTACATGGACCGGTTTTCCCGGTAATCCGTATTTGAG (site CACCCTACTCT)	0.112
CTCCCTACATGGACCGGTTTTCCCGGTAATCCGTATTTGAG (site CCCCCTACTCT)	0.0077
CTCCCTACATGGACCGGTTTTCCCGGTAATCCGTATTTGAG (site CGCCCTACTCT)	0.0122
CTCCCTACATGGACCGGTTTTCCCGGTAATCCGTATTTGAG (site CTACCTACTCT)	0.0126
CTCCCTACATGGACCGGTTTTCCCGGTAATCCGTATTTGAG (site CTCACTACTCT)	0.0117
CTCCCTACATGGACCGGTTTTCCCGGTAATCCGTATTTGAG (site CTCCATACTCT)	0.00249
